In this experiment the target is Indoleamine 2,3-dioxygenase 1 (Homo sapiens, UniProt P14902). Description: IDO Kynurenine Assay. Particulars: 25 °C. On the procedure: Human IDO1/HEK293 cells were seeded at 10,000 cells per 50 uL per well with RPMI/phenol red free media contains 10% FBS in a 384-well black wall clear bottom tissue culture plate (Matrix Technologies LLC) 125 nL of certain concentration of compound was then added to each well using ECHO liquid handling systems. The cells were incubated for 20 hours in 37° C. incubator with 5% CO2. The compound treatments were stopped by adding Trichloroacetic Acid (Sigma-Aldrich) to a final concentration at 0.2%. The cell plate was further incubated at 50° C. for 30 minute. The equal volume supernatant (20 uL) and 0.2% (w/v) Ehrlich reagent (4-dimethylaminobenzaldehyde, Sigma-Aldrich) in glacial acetic acid were mixed in a new clear bottom 384-well plate. This plate was then incubated at room temperature for 30 minute. The absorbance at 490 nm was measured on Envision plate reader.
Chain of Indoleamine 2,3-dioxygenase 1 (P14902 whole entry): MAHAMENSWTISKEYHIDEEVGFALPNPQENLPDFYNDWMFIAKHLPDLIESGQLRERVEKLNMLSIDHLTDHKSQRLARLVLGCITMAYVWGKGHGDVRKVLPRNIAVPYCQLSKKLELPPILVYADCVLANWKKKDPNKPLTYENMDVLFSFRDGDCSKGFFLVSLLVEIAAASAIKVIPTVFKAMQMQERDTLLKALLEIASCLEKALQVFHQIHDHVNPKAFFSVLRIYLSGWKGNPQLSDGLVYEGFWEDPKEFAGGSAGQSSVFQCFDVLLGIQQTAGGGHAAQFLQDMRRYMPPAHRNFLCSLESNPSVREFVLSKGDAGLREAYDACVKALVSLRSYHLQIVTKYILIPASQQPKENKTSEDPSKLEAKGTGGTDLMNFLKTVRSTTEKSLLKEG

The term EC50 denotes the midpoint of the concentration-response curve. In turn, `Cc1cc(NC(=O)Nc2cc([C@H]3C[C@H]3C(=O)O)ccc2N(CC(C)C)C2CCCCC2)on1` [US9675571, 129] registered an EC50 of 500 pM.
